Measurements as given in patent US12019067B2, “Interferometry based systems to detect small mass changes of an object in a solution” (NantBio, Inc., priority 2020, dated 2024).

Key:
Format in all cases: cell-based, human
H929 cells = experiment: Live cell interferometry (LCI) growth of H929 cells with or without bortezomib; conditions: for growth trajectory compared to the control: 96 well plate
Description: A typical assay may include, for a single plate, forming groups of seven wells. A range of concentrations may be used, with each concentration (e.g., a DMSO control, varying therapeutic concentrations of 0.039 nM, 0.156 nM, 0.625 nM, 2.5 nM, 10 nM, and 40 nM) applied to a group of wells. In some embodiments, cells are plated, therapeutic(s) are added, and images are collected every 10-15 minutes for the designated period of time.
For development of screening techniques, H929 cells may be used. H929 cells, which may be grown in serum free conditions, have the morphologic, ultrastructural, biochemical, immunologic, and cytochemical features of plasma cells (see, Gazdar et al., Blood (1986) 67(6): 1542-9). H929 cells, derived from a human patient with multiple myeloma, are commonly used for multiple myeloma testing and are sensitive to a variety of chemotherapeutic drugs.
In this experiment, about 1681 control cells and about 1272 bortezomib treated cells were screened.
A small but statistically significant difference in growth rate was detected at about 4.5 hrs. […] As shown in this graph, the growth trajectories of the control and bortezomib treated cells begin to diverge between 4-5 hours. […] Here, a vertical line indicates a statistically significant point of divergence using LCI techniques between 4-5 hours.
In this experiment, about 1889 control cells and about 1248 bortezomib treated cells were screened. Imaging was initiated after drug addition, every 12 min for 7 hrs. In this study, the normalized growth rate [1/h] of DMSO control cells was 0.0152, while the normalized growth rate [1/h] of 10 nM bortezomib treated cells was 0.0139, for a difference of −8.6% between these two growth rates. As shown by the graph, after about 5 hours, the normalized growth rate of control and 10 nM bortezomib treated cells diverged. Accordingly, under these conditions, efficacy of a drug was determined in about 5 hours.
For this graph, the same plate (as used in FIG. 21C) was imaged (for a total of 24 hours) after drug addition. An image was taken every 12 minutes for about 15 hours. About 1867 control cells and about 1426 bortezomib treated cells were screened.
FIGS. 22A-22D show another study using bortezomib. […] A clear response to the therapeutic was observed, with the drug EC50 expected to be between 2.5-10 nM.

MM.1S cells = experiment: LCI growth of MM.1S cells treated with bortezomib or dexamethasone
Text: As an alternative, MM.1 cells may be used as model cell line for assay development, wherein MM.1S refers to a strain that is sensitive to a drug such as dexamethasone and MM.1R refers to a strain that is resistant to a drug such as dexamethasone. For these types of experiments, a 12 well plate may be seeded at about 1.5××10^5 cells per plate. The desired concentration of therapeutic(s) may be added to each of the six wells. Control wells may also be established using the same dilutions with DMSO as the test well containing drug. LCI imaging may begin immediately after drug addition, with images being taken every 10-15 minutes.
About 2.5××10^5 cells per well were placed on a poly-D-lysine 12 well plate, and incubated for one hour. About 200 nM dexamethasone, 10 nM bortezomib, or DMSO (in duplicate wells) were added to each well, and images were collected every 15 mins for up to 15 hours.

MM.1R and MM.1S cells = experiment: Multiple myeloma combinatorial screening of therapeutics by LCI, 96 well plate; conditions: for overall result: response / overall result: titration effect: 3 concentrations per drug, quadruplicate, 96 well plate; for ranking among screened drugs: bortezomib 20 nM and carfilzomib at 50 nM
Description: In this example, 6 therapeutics at 3 different concentrations, were added in quadruplicate to a 96 well plate. Thus, there were 19 different conditions: bortezomib (20, 5, 1.25 nM); carlifomib (50, 10, 2 nM); dexamethasone (300, 100, 33.3 nM); lenalidomide (50, 10, 2 nM); panobinostat (50, 10, 2 nM); pomalidomide (50, 10, 2 nM); and DMSO (300 nM) as a negative control. In clinical practice, the actual drugs/combinations may be provided by the clinician.
In this study, a large number of cells (12,000 total cells) were screened to identify optimal drugs and concentrations. This assay, while performed on MM.1R and MM.1S cells may be performed on any suitable cell type (e.g., patient derived cancer cells from multiple myeloma, breast cancer, lung cancer, etc.). For multiple myeloma cells, a protocol for CD138+ cell enrichment from patient bone marrow is provided in the art.
FIGS. 25B, 25C, and 25D show the results of this assay, in graphical, dot box, and table format respectively, in which multiple “best treatments” were identified using this system.

For `CC(C)C[C@H](NC(=O)[C@H](Cc1ccccc1)NC(=O)c1cnccn1)B(O)O` [bortezomib], the “difference between growth rates of treated and DMSO control cells” value (from here on “difference between growth rates”) (H929 cells; 2 nM bortezomib) was −6.55%, the “normalized growth rate” value (H929 cells; 2 nM bortezomib, imaged about 15 hours) was 0.0172 h⁻¹ and the “difference between growth rates” value (H929 cells; 10 nM bortezomib, first 7 hrs) was −8.6%. For the same compound, the “normalized growth rate” value (H929 cells; 10 nM bortezomib, imaged every 12 min for 7 hrs after drug addition) was 0.0139 h⁻¹, the “difference between growth rates” value (H929 cells; 10 nM bortezomib, later imaging about 15 hours (total 24 hours)) was −119.6% and the “normalized growth rate” value (H929 cells; 10 nM bortezomib, same plate imaged further about 15 hours (total of 24 hours after drug addition)) was 0.000443 h⁻¹. The “growth trajectory compared to the control” value (H929 cells; 2.5 nM) was “did not show a difference in growth trajectory”, the “growth trajectory compared to the control” value (H929 cells; 10 nM) was “significant decline in growth” and the EC50 (H929 cells; Homo sapiens, NCI-H929, 96 well plate, 0-40 nM titration, expected value) was 2.5 to 10 nM. For the same compound, the EC50 (MM.1S cells; Homo sapiens, MM1.S cells, bortezomib titration) was 2.5 to 10 nM, the “sensitivity of cells to drug” value (MM.1S cells; MM.1S, 10 nM bortezomib) was “sensitive” and the “overall result: response” value (MM.1R and MM.1S cells) was “good/great response”. For the same compound, the “overall result: titration effect” value (MM.1R and MM.1S cells) was “good titration effect” and the “ranking among screened drugs” value (MM.1R and MM.1S cells) was “most effective drugs”.
For `CC(C)C[C@H](NC(=O)[C@H](CCc1ccccc1)NC(=O)CN1CCOCC1)C(=O)N[C@@H](Cc1ccccc1)C(=O)N[C@@H](CC(C)C)C(=O)[C@@]1(C)CO1` [carfilzomib], the “overall result: response” value (MM.1R and MM.1S cells) was “good/great response”, the “overall result: titration effect” value (MM.1R and MM.1S cells) was “good titration effect” and the “ranking among screened drugs” value (MM.1R and MM.1S cells) was “most effective drugs”.
With `C[C@@H]1C[C@H]2[C@@H]3CCC4=CC(=O)C=C[C@]4(C)[C@@]3(F)[C@@H](O)C[C@]2(C)[C@@]1(O)C(=O)CO` [dexamethasone] the “reduction of MM.1S growth” value (MM.1S cells; about 200 nM dexamethasone, imaged up to 15 hours) was 80.5%.
With `Nc1cccc2c1CN(C1CCC(=O)NC1=O)C2=O` (stereo not shown) [lenalidomide] the “overall result: response” value (MM.1R and MM.1S cells) was “no response” and the “overall result: titration effect” value (MM.1R and MM.1S cells) was “no titration effect”.
In the case of `Nc1cccc2c1C(=O)N(C1CCC(=O)NC1=O)C2=O` (stereo not shown) [pomalidomide], the “overall result: response” value (MM.1R and MM.1S cells) is reported as “some response” and the “overall result: titration effect” value (MM.1R and MM.1S cells) is reported as “good titration effect”.
